Legend:
[1] = tested on: LTD4; assay: LTD4 antagonism in guinea-pig trachea (in vitro test); format: cell-based; conditions: Cavia porcellus, 0.5 h, LTD4 2×10^-8 g/ml, isolated guinea-pig trachea; for inhibition at 1 µg/mL: 10^-6 g/ml test compound; for inhibition at 0.1 µg/mL: 10^-7 g/ml test compound, read-out: LTD4 Antagonism (%) (in parenthesis)
Method: (§1) SRS-A is a mixture of leukotriene C4 (hereinafter referred to as LTC4), leukotriene D4 (hereinafter referred to as LTD4), leukotriene E4 (hereinafter referred to as LTE4) and the like. Accordingly, antagonistic activities against SRS-A can be evaluated by one of the following two test methods:
LTD4 antagonism in guinea-pig trachea
Antagonism for LTD4 was determined in isolated male guinea-pig (300-400 g) trachea prepared as spiral strip. Tracheal preparations were suspended under 1 g tension in 10 ml organ baths containing 5 μM of indomethacin and they were incubated for 1 hr prior to use. Contractile responses to LTD4 (2×10^-8 g/ml) were obtained after the maximal response to histamine (10^- 4 M). Test compounds dissolved in 100% dimethyl sulfoxide were added to the organ baths (final concentration of 10^-6 g/ml or 10^-7 g/ml) 30 min prior to LTD4 addition, and then contractile responses to LTD4 were compared with those of control which was obtained from a paired trachea in the absence of test compounds. LTD4 -induced contractions were expressed as a percentage of the maximal response to histamine. The antagonism was determined as follows:
Antagonism (%)=(1.0 - % contraction in test/% contraction in control)×100
In parenthesis in Table 2, LTD4 antagonisms by test compounds at a concentration of 10^-7 g/ml are shown.

[2] = Acute toxicity test (lethal ratio, oral); format: in vivo, CD-1(ICR) strain male mice; conditions: 1200 mg/kg oral; 7 days after administration; experimental number 5
Method: The lethal ratio was determined in CD-1(ICR) strain male mice (5 weeks old) at 7 days after the oral administration of test compounds.

[3] = tested on: SRS-A; assay: Effect on anaphylactic bronchoconstriction mediated by endogeneously liberated SRS-A in passively sensitized guinea-pig (in vivo test); conditions: for Inhibition (%) of bronchoconstriction: 2 hrs before EA challenge; for inhibitory effects over the control (in words): oral administration, doses of Table 3, P<0.05
Description: as §1
Effect on anaphylactic bronchoconstriction mediated by endogeneously liberated SRS-A in passively sensitized guinea-pig
Male guinea-pigs (350-450 g) were passively sensitized with intravenous (i.v.) injection of 0.125 ml rabbit anti-EA (egg albumin) serum (Capple Laboratories) 1 to 2 days preceding the experiment. Antigen-induced anaphylactic bronchoconstrictions mediated by endogeneously liberated SRS-A were measured by modified method of Konzett and Rossler (Arch. Exp. Path. Pharmak., 195, 71, 1940). Sensitized guinea-pigs were anaesthetized with intraperitoneal injection of urethane (1.5 g/kg). The right jugular vein was cannulated for the administration of the all agents and trachea was cannulated to record total pulmonary resistance. Guinea-pigs were artificially ventilated by a small animal respirator (Shinano, Model SN-480-7) set at a stroke volume of 4.5 ml and a rate of 50 breaths per min. The change in pulmonary resistance was measured with a pressure transducer (Nihon Kohden, Model TP-602T) connected to a T-tube on the tracheal cannula. The increase in air overflow volume was expressed as a percentage of the maximum bronchoconstriction obtained by clamping off the trachea. Following surgical preparation, the animals were pretreated with indomethacin (2 mg/kg, 10 min), pyrilamine (2 mg/kg, 6 min) and propranolol (0.1 mg/kg, 5 min) prior to the EA challenge (0.2 mg/kg). All test compounds were administered orally 2 hrs before the EA challenge. Inhibition (%) of bronchoconstriction was determined as follows: Inhibition (%)=(1.0 - % maximum bronchoconstriction in test/% maximum bronchoconstriction in control)×100. The maximum bronchoconstriction was 62±6% (Mean±S.E.M; n=6) and the number of test animals was 5-6.

| SMILES | inhibition at 1 µg/mL [1] [%] | Lethal ratio: Death number [2] | Inhibition (%) of bronchoconstriction ([3]; 10 mg/kg orally) [%] | Inhibition (%) of bronchoconstriction ([3]; 30 mg/kg orally) [%] | inhibitory effects over the control (in words) [3] | inhibition at 0.1 µg/mL [1] [%] |
| --- | --- | --- | --- | --- | --- | --- |
| CCCCOc1cc(CNc2c(OCC)n[nH]c(=O)c2Cl)ccc1OC [Compound No. 68, 4-chloro-5-(3-n-butoxy-4-methoxybenzylamino)-6-ethoxy-3(2H)pyridazinone] | 92 | 0 | 63 | 51 | significant inhibitory effects | – |
| CCCCOc1cc(CNc2c(OC(C)C)n[nH]c(=O)c2Cl)ccc1OC [Compound No. 69] | 100 | 0 | – | 52 | significant inhibitory effects | 83 |
| CCOc1cc(CNc2c(OC(C)c3ccccc3)n[nH]c(=O)c2Cl)ccc1OC (stereo not drawn) [Compound No. 91] | 100 | – | – | – | – | 76 |

From patent US4978665A, “3(2H)pyridazinone, and antagonistic agent against SRS-A containing it” (Nissan Chemical Industries Ltd., priority 1987, dated 1990)
